Numbered stars: 1 amine (or outer) side, 2 acyl side, 3 side chain; on linkers, the order of the positions; unused ones are H or OH. Bridge positions count the residues as written; N and C are the ends. Square brackets hold non-standard residues; d marks the D form. Peptide text beside a SMILES is read from it. * marks the point of attachment. ξ: configuration not given here. Phe(3-CF3) = N[C@@H](Cc1cccc(C(F)(F)F)c1)C(=O)O; Ala(morpholin-4-yl) = N[C@@H](CN1CCOCC1)C(=O)O; Phe(4-COOH) = N[C@@H](Cc1ccc(C(=O)O)cc1)C(=O)O; X28 = O=C([C@H](Cc1ccc2ccncc2c1)N[*:1])[*:2]; Phe(4-CH2NH2) = NCc1ccc(C[C@H](N)C(=O)O)cc1; Bip = N[C@@H](Cc1ccc(-c2ccccc2)cc1)C(=O)O; Phe(3-Cl) = N[C@@H](Cc1cccc(Cl)c1)C(=O)O; Phe(3-Me) = Cc1cccc(C[C@H](N)C(=O)O)c1; Val(3-OH) = CC(C)(O)[C@H](N)C(=O)O; 4Pal = N[C@@H](Cc1ccncc1)C(=O)O; Cha = N[C@@H](CC1CCCCC1)C(=O)O; Cit = NC(=O)NCCC[C@H](N)C(=O)O; Ile(3ξ) = CCC(C)[C@H](N)C(=O)O; Thr(3ξ) = CC(O)[C@H](N)C(=O)O; Carboxymethyl = O=C(O)C*; NMeA = CN[C@@H](C)C(=O)O; Dab = NCC[C@H](N)C(=O)O; Nva = CCC[C@H](N)C(=O)O; ξC = NC(CS)C(=O)O
Target: T1, PE-labeled human PD-L1-Ig binding to Jurkat cell line over-expressing human PD-1 (Jurkat-PD-1) (Homo sapiens, UniProt Q15116)
T1 construct: expressed in transfected cells; host or cells: Jurkat
Assay: Jurkat-PD-1 Cell Binding High-Content Screening Assay (CBA): Method 1
Settings: Jurkat-hPD-1 cells, PE-labeled PD-L1-Ig 20 nM final; read-out: Jurkat HPDL1 PD1 IC50 (uM) (Method 1)

T1 sequence (Q15116 25-288): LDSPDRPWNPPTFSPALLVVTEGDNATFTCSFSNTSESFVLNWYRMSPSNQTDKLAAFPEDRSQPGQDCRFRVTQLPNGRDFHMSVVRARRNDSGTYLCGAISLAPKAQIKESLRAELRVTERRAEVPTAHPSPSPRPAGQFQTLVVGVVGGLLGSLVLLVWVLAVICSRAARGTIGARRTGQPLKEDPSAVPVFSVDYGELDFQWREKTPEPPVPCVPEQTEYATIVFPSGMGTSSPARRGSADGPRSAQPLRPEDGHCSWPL

SMILES	IC50 [µM]
CCC(C)[C@@H]1NC(=O)[C@H](Cc2ccc(-c3ccccc3)cc2)NC(=O)[C@H](C(C)C)NC(=O)[C@H](Cc2c[nH]c3ccccc23)NC(=O)[C@H](CC(=O)O)NC(=O)[C@H](Cc2ccc(O)cc2)NC(=O)[C@H](Cc2ccc3ccncc3c2)NC(=O)CSCC(C(=O)NCC(=O)O)NC(=O)[C@H](C(C)O)NC(=O)[C@H](C(C)C)NC(=O)[C@H](CC2CCCCC2)NC(=O)[C@H](CCN)NC(=O)[C@@H](CC(C)C)NC(=O)[C@H](C)N(C)C1=O (stereo partly drawn) [Compound 2219] ({CH2CO}-[X28]YDWV[Bip][Ile(3ξ)][NMeA][dL][Dab][Cha]V[Thr(3ξ)][ξC]G-OH; thioether N-14)	0.02
CCC[C@@H]1NC(=O)[C@H](CC(C)C)NC(=O)[C@H](CCCNC(=N)N)NC(=O)[C@@H](CC(C)C)NC(=O)[C@H](C)N(C)C(=O)[C@H](CCCNC(=N)N)NC(=O)[C@H](Cc2ccc(-c3ccccc3)cc2)NC(=O)[C@H](C(C)C)NC(=O)[C@H](Cc2c[nH]c3ccccc23)NC(=O)[C@H](CC(=O)O)NC(=O)[C@H](Cc2ccc(O)cc2)NC(=O)[C@H](Cc2ccccc2)NC(=O)CSC[C@@H](C(=O)N[C@@H](C)C(N)=O)NC(=O)[C@H]([C@@H](C)O)NC1=O [Compound 1112] ({CH2CO}-FYDWV[Bip]R[NMeA][dL]RL[Nva]TCA-NH2; thioether N-14)	0.1
CC(C)C[C@@H]1NC(=O)[C@H](CC(N)=O)NC(=O)[C@@H](CC(C)C)NC(=O)[C@H](C)N(C)C(=O)[C@H](CCCNC(=N)N)NC(=O)[C@H](Cc2ccc(-c3ccccc3)cc2)NC(=O)[C@H](C(C)C)NC(=O)[C@H](Cc2c[nH]c3ccccc23)NC(=O)[C@H](CC(=O)O)NC(=O)[C@H](Cc2ccc(O)cc2)NC(=O)[C@H](Cc2ccccc2)NC(=O)CSC[C@@H](C(=O)N[C@@H](C)C(N)=O)NC(=O)[C@H](CO)NC(=O)[C@H](C(C)C)NC1=O [Compound 1742] ({CH2CO}-FYDWV[Bip]R[NMeA][dL]NLVSCA-NH2; thioether N-14)	0.02
CC(C)[C@@H]1NC(=O)[C@H](CC2CCCCC2)NC(=O)[C@H](CCN)NC(=O)CNC(=O)[C@H](C)N(C)C(=O)[C@H](Cc2ccc(C(=O)O)cc2)NC(=O)[C@H](Cc2ccc(-c3ccccc3)cc2)NC(=O)[C@H](Cc2ccc(C(=O)O)cc2)NC(=O)[C@H](Cc2cccc(C(F)(F)F)c2)NC(=O)[C@H](CC(=O)O)NC(=O)[C@H](Cc2ccc(C(=O)O)cc2)NC(=O)[C@H](CN2CCOCC2)NC(=O)CSC[C@@H](C(=O)N[C@@H](CCN)C(N)=O)NC(=O)[C@H](CCC(=O)O)NC1=O [Example 2286] ({CH2CO}-[Ala(morpholin-4-yl)][Phe(4-COOH)]D[Phe(3-CF3)][Phe(4-COOH)][Bip][Phe(4-COOH)][NMeA]G[Dab][Cha]VEC[Dab]-NH2; thioether N-14)	0.08
CC(C)C[C@@H]1NC(=O)[C@H](CCN)NC(=O)[C@@H](CC(C)C)NC(=O)[C@H](C)N(C)C(=O)[C@H](CCCNC(N)=O)NC(=O)[C@H](Cc2ccc(-c3ccccc3)cc2)NC(=O)[C@H](C(C)C)NC(=O)[C@H](Cc2c[nH]c3ccccc23)NC(=O)[C@H](CC(=O)O)NC(=O)[C@H](Cc2ccc(O)cc2)NC(=O)[C@H](Cc2cnc[nH]2)NC(=O)CSC[C@@H](C(=O)N[C@@H](C)C(N)=O)NC(=O)[C@H]([C@@H](C)O)NC(=O)[C@H](C(C)C)NC1=O [Compound 1356] ({CH2CO}-HYDWV[Bip][Cit][NMeA][dL][Dab]LVTCA-NH2; thioether N-14)	0.02
CC(C)C[C@H]1NC(=O)[C@H](C)N(C)C(=O)[C@H](Cc2ccc(CN)cc2)NC(=O)[C@H](Cc2ccc(-c3ccccc3)cc2)NC(=O)[C@H](C(C)C)NC(=O)[C@H](Cc2c[nH]c3ccccc23)NC(=O)[C@H](CC(=O)O)NC(=O)[C@H](Cc2ccc(O)cc2)NC(=O)[C@H](Cc2ccncc2)NC(=O)CSC[C@@H](C(=O)N[C@@H](C)C(N)=O)NC(=O)[C@H](C(C)O)NC(=O)[C@H](C(C)C)NC(=O)[C@H](CC2CCCCC2)NC(=O)[C@H](CC(N)=O)NC1=O (stereo partly drawn) [Compound 2048] ({CH2CO}-[4Pal]YDWV[Bip][Phe(4-CH2NH2)][NMeA][dL]N[Cha]V[Thr(3ξ)]CA-NH2; thioether N-14)	0.03
CC(C)C[C@@H]1NC(=O)[C@H](CCCNC(=N)N)NC(=O)[C@@H](CC(C)C)NC(=O)[C@H](C)N(C)C(=O)[C@H](C(C)C)NC(=O)[C@H](Cc2ccc(-c3ccccc3)cc2)NC(=O)[C@H](C(C)C)NC(=O)[C@H](Cc2c[nH]c3ccccc23)NC(=O)[C@H](CC(=O)O)NC(=O)[C@H](Cc2ccc(O)cc2)NC(=O)[C@H](CC(N)=O)NC(=O)CSC[C@@H](C(=O)N[C@@H](C)C(N)=O)NC(=O)[C@H]([C@@H](C)O)NC(=O)[C@H](C(C)C)NC1=O [Compound 1216] ({CH2CO}-NYDWV[Bip]V[NMeA][dL]RLVTCA-NH2; thioether N-14)	0.03
Cc1cccc(C[C@@H]2NC(=O)[C@H](CC(=O)O)NC(=O)[C@H](Cc3ccc(OCC(=O)O)cc3)NC(=O)[C@H](Cc3ccncc3)NC(=O)CSC[C@@H](C(N)=O)NC(=O)[C@H](CC(=O)O)NC(=O)[C@H](C(C)C)NC(=O)[C@H](CC3CCCCC3)NC(=O)[C@H](CCN)NC(=O)[C@@H](CC(C)C)NC(=O)[C@H](C)N(C)C(=O)[C@H](Cc3ccc(OCC(=O)O)cc3)NC(=O)[C@H](Cc3ccc(-c4ccccc4)cc3)NC(=O)[C@H](Cc3ccc(OCC(=O)O)cc3)NC2=O)c1 [Compound 1658] ({CH2CO}-[4Pal]Y(Carboxymethyl)D[Phe(3-Me)]Y(Carboxymethyl)[Bip]Y(Carboxymethyl)[NMeA][dL][Dab][Cha]VDC-NH2; thioether N-14)	0.03
CC(C)C[C@@H]1NC(=O)[C@H](CCN)NC(=O)[C@@H](CC(C)C)NC(=O)[C@H](C)N(C)C(=O)[C@H](C(C)C)NC(=O)[C@H](Cc2ccc(-c3ccccc3)cc2)NC(=O)[C@H](C(C)C)NC(=O)[C@H](Cc2cccc(Cl)c2)NC(=O)[C@H](CC(=O)O)NC(=O)[C@H](Cc2ccc(O)cc2)NC(=O)[C@H](CC(N)=O)NC(=O)CSC[C@@H](C(=O)N[C@@H](C)C(N)=O)NC(=O)[C@H]([C@@H](C)O)NC(=O)[C@H](C(C)C)NC1=O [Compound 1265] ({CH2CO}-NYD[Phe(3-Cl)]V[Bip]V[NMeA][dL][Dab]LVTCA-NH2; thioether N-14)	0.01
CC(C)C[C@@H]1NC(=O)[C@H](CCCNC(=N)N)NC(=O)[C@@H](Cc2ccc(O)cc2)NC(=O)[C@H](C)N(C)C(=O)[C@H](CCCNC(=N)N)NC(=O)[C@H](Cc2ccc(-c3ccccc3)cc2)NC(=O)[C@H](C(C)C)NC(=O)[C@H](Cc2c[nH]c3ccccc23)NC(=O)[C@H](CC(=O)O)NC(=O)[C@H](Cc2ccc(O)cc2)NC(=O)[C@H](Cc2ccccc2)NC(=O)CSC[C@@H](C(=O)NCC(N)=O)NC(=O)[C@H](CO)NC(=O)[C@H](C(C)C)NC1=O [Compound 1020] ({CH2CO}-FYDWV[Bip]R[NMeA][dY]RLVSCG-NH2; thioether N-14)	0.07
Cc1cccc(C[C@@H]2NC(=O)[C@H](CC(N)=O)NC(=O)[C@H](Cc3ccc(OCC(=O)O)cc3)NC(=O)[C@H]([C@@H](C)O)NC(=O)CSC[C@@H](C(=O)N[C@@H](CCN)C(N)=O)NC(=O)[C@H](CCC(=O)O)NC(=O)[C@H](C(C)C)NC(=O)[C@H](CC3CCCCC3)NC(=O)[C@H](CCN)NC(=O)[C@@H](CC(C)C)NC(=O)[C@H](C)N(C)C(=O)[C@H](Cc3ccc(OCC(=O)O)cc3)NC(=O)[C@H](Cc3ccc(-c4ccccc4)cc3)NC(=O)[C@H](Cc3ccc(OCC(=O)O)cc3)NC2=O)c1 [Example 2281] ({CH2CO}-TY(Carboxymethyl)N[Phe(3-Me)]Y(Carboxymethyl)[Bip]Y(Carboxymethyl)[NMeA][dL][Dab][Cha]VEC[Dab]-NH2; thioether N-14)	0.77
Cc1cccc(C[C@@H]2NC(=O)[C@H](CC(=O)O)NC(=O)[C@H](Cc3ccc(OCC(=O)O)cc3)NC(=O)[C@H](Cc3cnc[nH]3)NC(=O)CSC[C@@H](C(=O)N[C@H](C)C(N)=O)NC(=O)[C@H](CO)NC(=O)[C@H](C(C)(C)O)NC(=O)[C@H](CC3CCCCC3)NC(=O)[C@H](CCN)NC(=O)[C@@H](CC(C)C)NC(=O)[C@H](C)N(C)C(=O)[C@H](Cc3ccc(OCC(=O)O)cc3)NC(=O)[C@H](Cc3ccc(-c4ccccc4)cc3)NC(=O)[C@H](Cc3ccc(C(=O)O)cc3)NC2=O)c1 [Compound 2182] ({CH2CO}-HY(Carboxymethyl)D[Phe(3-Me)][Phe(4-COOH)][Bip]Y(Carboxymethyl)[NMeA][dL][Dab][Cha][Val(3-OH)]SC[dA]-NH2; thioether N-14)	0.09
CCC(C)[C@@H]1NC(=O)[C@H](Cc2ccc(-c3ccccc3)cc2)NC(=O)[C@H](C(C)C)NC(=O)[C@H](Cc2cccc(C)c2)NC(=O)[C@H](CC(=O)O)NC(=O)[C@H](Cc2ccc(OCC(=O)O)cc2)NC(=O)[C@H](C(C)O)NC(=O)CSC[C@@H](C(=O)N[C@@H](CCN)C(N)=O)NC(=O)[C@H](C(C)O)NC(=O)[C@H](C(C)C)NC(=O)[C@H](CC2CCCCC2)NC(=O)[C@H](CCN)NC(=O)[C@@H](CC(C)C)NC(=O)[C@H](C)N(C)C1=O (stereo partly drawn) [Compound 2116] ({CH2CO}-[Thr(3ξ)]Y(Carboxymethyl)D[Phe(3-Me)]V[Bip][Ile(3ξ)][NMeA][dL][Dab][Cha]V[Thr(3ξ)]C[Dab]-NH2; thioether N-14)	0.01
CC(C)C[C@@H]1NC(=O)[C@H](Cc2c[nH]c3ccccc23)NC(=O)[C@H](CC(=O)O)NC(=O)[C@H](Cc2ccc(O)cc2)NC(=O)[C@H](Cc2ccccc2)NC(=O)CSC[C@@H](C(=O)N[C@@H](C)C(N)=O)NC(=O)[C@H](CO)NC(=O)[C@H](C(C)C)NC(=O)[C@H](CC(C)C)NC(=O)[C@H](CCC(=O)O)NC(=O)[C@@H](C)NC(=O)[C@H](C)N(C)C(=O)[C@H](C(C)C)NC(=O)[C@H](Cc2ccc(-c3ccccc3)cc2)NC1=O [Compound 1749] ({CH2CO}-FYDWL[Bip]V[NMeA][dA]ELVSCA-NH2; thioether N-14)	0.02
CCC(C)[C@@H]1NC(=O)[C@H](Cc2ccc(-c3ccccc3)cc2)NC(=O)[C@H](C(C)C)NC(=O)[C@H](Cc2c[nH]c3ccccc23)NC(=O)[C@H](CC(=O)O)NC(=O)[C@H](Cc2ccc(OCC(=O)O)cc2)NC(=O)[C@H](C(C)O)NC(=O)CSC[C@@H](C(N)=O)NC(=O)[C@H](CO)NC(=O)[C@H](C(C)C)NC(=O)[C@H](CC2CCCCC2)NC(=O)[C@H](CCN)NC(=O)[C@@H](CC(C)C)NC(=O)[C@H](C)N(C)C1=O (stereo partly drawn) [Compound 2251] ({CH2CO}-[Thr(3ξ)]Y(Carboxymethyl)DWV[Bip][Ile(3ξ)][NMeA][dL][Dab][Cha]VSC-NH2; thioether N-14)	0.02
